Measurements from patent publication US7993687B2, “Compositions and methods for management of diabetes” (priority 2006, dated 2011).
“Also recorded” adds a separate entry of the source.

Tests used:
Type in all cases: cell-based, rat
[1] = tested on: p42/44 MAPK (Thr202/Tyr204); experiment: Western blot of MAPK phosphorylation in H4IIE cells; conditions: for phosphorylation of MAPK (FIG. 9): 6 minutes, insulin 250 nM, 2 μL of BWE, D-CI or MI solution
Description: Tissue culture media, antibiotics, fetal bovine serum (FBS) and Nunc tissue culture plates were purchased from Invitrogen Canada Inc. (Burlington, Ontario, Canada, L7P 1A1). Insulin (Sigma-Aldrich Canada Ltd., Oakville, Ontario, Canada, L6H 6J8) was dissolved in water and added directly to cells at a concentration of 250 nM unless otherwise indicated. The BWE was prepared and analyzed as described in Example 1. Two μL of the BWE were added directly to cells unless otherwise indicated. […] Myo-inositol (Sigma-Aldrich Canada Ltd.) and D-chiro-inositol (Industrial Research Ltd., Wellington, New Zealand) were dissolved in water at an equal concentration to the amounts present in the BWE (Table 3) and 2 μL of each solution (0.1% v/v final concentration) was added directly to cells.
(§1) Rat H4IIE hepatoma cells (American Type Culture Collection, CRL 1548) were cultured following the method disclosed by Yau et al., (1998, Eur. J. Biochem. 253: 91-1). The H4IIE cells were maintained in α-modified Eagle's media containing 10% FBS, 2 mM glutamine, 25 μg·mL^−1 streptomycin and 25 units·mL^−1 penicillin. Cells were plated and grown to 70% confluence. All cells were placed into serum-free medium for 72 h before addition of stimulating agents to ensure entry into a quiescent state.
(§2) Cultures of quiescent H4IIE cells or quiescent FAO cells were placed into 12-well culture dishes containing 2 mL serum-free medium, and then stimulated by direct addition of the inhibitors listed in Table 1 (volumes of additions were 10 μL or less) without replacing the medium. […] The cells in 12-well culture dishes were incubated with stimulating agents for 6 minutes and rinsed with phosphate buffered saline (PBS; 0.9% NaCl, 0.1 M Na3PO4, pH 7.1).
(§3) Cellular protein extracts were prepared by addition of 200 μL 2×SDS/gel loading buffer (0.125 M Tris pH 6.8, 2% SDS, 10% glycerol) to H4IIE cells in 12-well culture dishes. The samples were briefly sonicated, and protein content measured using the BCA protein assay kit. Aliquots containing equal amounts of protein were mixed with bromophenol blue (0.5% (w/v) final concentration) and 2-mercaptoethanol (5% (v/v) final concentration), heated at 95° C. and loaded onto 7.5% or 10% polyacrylamide gels. […] Primary antibodies (diluted 1:1000 in 3% (w/v) BSA) were incubated with the membrane for 60 min at 22° C. Membranes were subsequently washed four times and incubated for an additional 60 min at 1 8-22° C. in 1% (w/v) BSA-TBST with diluted HRP-coupled secondary antibody (1:10 000). HRP was detected using the ECL chemiluminescent system after the membranes had been washed four times.
Quantification of data obtained on film (Kodak X-omat) was accomplished with a GS800 imaging densitometer (Bio-Rad Laboratories) under nonsaturating conditions with local background subtraction. Although multiple exposures were acquired to ensure the absence of film saturation, the experimental figures typically show longer exposures selected specifically for visual presentation and not necessarily used for data analysis. Graphical data are presented as means±SE for a minimum of three replicate samples. […]

[2] = tested on: mitogen-activated protein kinase (MAPK); experiment: Western blot of MAPK phosphorylation in FAO hepatoma cells
Description: FAO cells are related to H4IIE since both cell lines were derived from Reuber H35 cells (Richardson et al., 1969, J. Cell Biol. 40: 236-247). […] FAO hepatoma cells were propagated under the same culture conditions used for H4IIE cells. Quiescent FAO cells were obtained by placing the cells into serum-free medium for 3 days.
Cultures of quiescent H4IIE cells or quiescent FAO cells were placed into 12-well culture dishes containing 2 mL serum-free medium, and then stimulated by direct addition of the inhibitors listed in Table 1 (volumes of additions were 10 μL or less) without replacing the medium. Inhibitors were added 10 minutes before the stimulating agents except for pertussis toxin which was added 4 hours prior. The cells in 12-well culture dishes were incubated with stimulating agents for 6 minutes and rinsed with phosphate buffered saline (PBS; 0.9% NaCl, 0.1 M Na3PO4, pH 7.1).
as §3
(§4) Quantification of data obtained on film (Kodak X-omat) was accomplished with a GS800 imaging densitometer (Bio-Rad Laboratories) under nonsaturating conditions with local background subtraction. […]

[3] = tested on: Insulin receptor (Tyr1146); experiment: Western blot of insulin receptor phosphorylation in H4IIE cells; conditions: 6 minutes
Description: (§5) Tissue culture media, antibiotics, fetal bovine serum (FBS) and Nunc tissue culture plates were purchased from Invitrogen Canada Inc. (Burlington, Ontario, Canada, L7P 1A1). Insulin (Sigma-Aldrich Canada Ltd., Oakville, Ontario, Canada, L6H 6J8) was dissolved in water and added directly to cells at a concentration of 250 nM unless otherwise indicated. The BWE was prepared and analyzed as described in Example 1. Two μL of the BWE were added directly to cells unless otherwise indicated. This amount was chosen on the basis of equivalence to insulin. Myo-inositol (Sigma-Aldrich Canada Ltd.) and D-chiro-inositol (Industrial Research Ltd., Wellington, New Zealand) were dissolved in water at an equal concentration to the amounts present in the BWE (Table 3) and 2 μL of each solution (0.1% v/v final concentration) was added directly to cells.
as §1, with “state. […]” for “state.”
(§6) Cellular protein extracts were prepared by addition of 200 μL 2×SDS/gel loading buffer (0.125 M Tris pH 6.8, 2% SDS, 10% glycerol) to H4IIE cells in 12-well culture dishes. The samples were briefly sonicated, and protein content measured using the BCA protein assay kit. […] HRP was detected using the ECL chemiluminescent system after the membranes had been washed four times.
as §4

Src (Tyr527) = experiment: Western blot of Src phosphorylation in H4IIE cells; conditions: 6 minutes
Description: as §5
as §1, with “state. […]” for “state.”
as §6, §4

STAT3 (Tyr705) = experiment: Western blot of STAT3 phosphorylation in H4IIE cells; conditions: 6 minutes
Description: as §5
as §1, with “state. […]” for “state.”
as §6, §4

GSK3 (Ser21/9) = experiment: Western blot of GSK3 phosphorylation in H4IIE cells; conditions: 6 minutes
Description: as §5
as §1, with “state. […]” for “state.”
as §6, §4

[4] = tested on: p70S6K (Thr389 and Thr421); experiment: Western blot of p70S6K phosphorylation in H4IIE cells
Description: as §5, §1, §2, §3
Quantification of data obtained on film (Kodak X-omat) was accomplished with a GS800 imaging densitometer (Bio-Rad Laboratories) under nonsaturating conditions with local background subtraction. Although multiple exposures were acquired to ensure the absence of film saturation, the experimental figures typically show longer exposures selected specifically for visual presentation and not necessarily used for data analysis. Graphical data are presented as means±SE for a minimum of three replicate samples.

[5] = insulin-stimulated, 6 min, 15-min preincubation with the inhibitor (None = insulin alone), one experiment

Compound	phosphorylation of MAPK (FIG. 9) [1]	phosphorylation of MAPK in FAO cells (FIG. 10) [2]	phosphorylation of InsR [3]	phosphorylation of Src (Src (Tyr527))	phosphorylation of STAT3 (STAT3 (Tyr705))	phosphorylation of GSK3 (GSK3 (Ser21/9))	phosphorylation of p70S6K (Thr421) ([4]; 6 minutes)	p42/44 P-MAPK (Thr202/Tyr204) phosphorylation, stimulation (fold) relative to the control ([1]; BWE-stimulated, 6 min, 15-min preincubation with the inhibitor (None = BWE alone), one experiment) [fold]	p42/44 P-MAPK (Thr202/Tyr204) phosphorylation, stimulation (fold) relative to the control [1, 5] [fold]	effect of the inhibitor on insulin- and BWE-stimulated phosphorylation of MAPK ([1]; preincubation with inhibitor, then insulin or BWE for 6 minutes)	effect of the inhibitor on insulin-stimulated phosphorylation of p70S6K (Thr389) ([4]; 15-minute pre-incubation with inhibitor, then INS 6 minutes)	effect of the inhibitor on insulin- and BWE-stimulated phosphorylation of p70S6K (Thr421) ([4]; 15-minute pre-incubation with inhibitor, then INS or BWE 6 minutes)	phosphorylation of MAPK, stimulation (fold) relative to the control (Table 6) ([1]; insulin treatment, 6 min, 15-min preincubation with PKA/PKC inhibitor (None = insulin alone), one experiment) [fold]	phosphorylation of p70S6K (Thr389) ([4]; 6 minutes)
OC1C(O)C(O)C(O)C(O)C1O [D-CI, D-chiro-inositol]	neither D-CI nor MI increased phosphorylation	did not	do not provide comparable stimulation	do not provide comparable stimulation	do not provide comparable stimulation	do not provide comparable stimulation	unable to effect phosphorylation							
O[C@H]1[C@H](O)[C@@H](O)[C@H](O)[C@@H](O)[C@H]1O [MI, myo-inositol]	neither D-CI nor MI increased phosphorylation	did not	do not provide comparable stimulation	do not provide comparable stimulation	do not provide comparable stimulation	do not provide comparable stimulation	unable to effect phosphorylation							
COc1cccc(-c2cc(=O)c3ccccc3o2)c1N [PD98059]								1.00	1	inhibited	independent of MAPK	MAPK-dependent (PD98059 sensitive)		
insulin: Insulin (Sigma-Aldrich) dissolved in water, positive comparator	increased the phosphorylation of MAPK	stimulated MAPK phosphorylation	phosphorylated in response to insulin; also recorded: stimulated by insulin only	phosphorylated in response to insulin	phosphorylated in response to insulin	phosphorylated in response to insulin	stimulates the phosphorylation of p70^S6K on both residues		13.3				3.53	stimulates the phosphorylation of p70^S6K on both residues
